Common to all, as to type: nucleic-acid assay
For assay [1], the target named is Nucleic Acid. As to the kind of experiment: Binding affinity to 2-AP labeled mutant RNA5 by fluorescence binding assay.
For assay [2], the target named is Nucleic Acid. As to the kind of experiment: Binding affinity to 2-AP labeled mutant RNA6 by fluorescence binding assay.
Assay [3] has as its target Nucleic Acid. As to the kind of experiment: Binding affinity to 2-AP labeled mutant RNA2 by fluorescence binding assay.
Assay [4] addresses Nucleic Acid. The assay is described as follows: Binding affinity to 2-AP labeled mutant RNA4 by fluorescence binding assay.
In assay [5] the target is Nucleic Acid. As to the kind of experiment: Binding affinity to 2-AP labeled mutant RNA7 by fluorescence binding assay.
In assay [6] the target is Nucleic Acid. As to the kind of experiment: Binding affinity to 2-AP labeled mutant RNA3 by fluorescence binding assay.
For assay [7], the target named is Nucleic Acid. The assay is described as follows: Binding affinity to 2-AP labeled mutant RNA8 by fluorescence binding assay.
Assay [8] has as its target Nucleic Acid. The assay is described as follows: Binding affinity to 2-AP labeled RNA1 by fluorescence binding assay.

A word on the Kd: it is a measure of binding affinity in units of concentration. Higher therefore signals a looser complex.

With `CO[C@@H]1C[C@H](NC(=O)[C@@H]2C[C@H](O[C@H]3O[C@H](CN)[C@@H](O)[C@H](O)[C@H]3N)[C@@H](N)C[C@H]2N)[C@@H](N)C[C@H]1N`, the Kd on Nucleic Acid [1] came to 0.5 µM; at Nucleic Acid [2] it was 1.4 µM; at Nucleic Acid [3] it was 1.5 µM; on Nucleic Acid [4], 1.7 µM; on Nucleic Acid [5], 2.9 µM; on Nucleic Acid [6], 2.2 µM. Further, the Kd worked out at 1.4 µM at Nucleic Acid [7] and 2.2 µM on Nucleic Acid [8].

As to `NC[C@@H]1O[C@H](O[C@H]2[C@@H](O)[C@H](O[C@@H]3[C@@H](O)[C@H](N)C[C@H](N)[C@H]3O[C@H]3O[C@H](CN)[C@@H](O)[C@H](O)[C@H]3N)O[C@@H]2CO)[C@H](N)[C@@H](O)[C@@H]1O` [FRAMYCETIN], the Kd is 1.1 µM on Nucleic Acid [1], 1.1 µM at Nucleic Acid [5], 1.1 µM on Nucleic Acid [6] and 1.5 µM at Nucleic Acid [8].

The record behind these values is ChEMBL document CHEMBL1806453, “Conjugate of neamine and 2-deoxystreptamine mimic connected by an amide bond” (Bioorg Med Chem Lett, 2011).
